Test results as given in patent US3981868A.
Values after ≈ are worked out from the molar mass of the structure shown.

Tests used:
diastolic blood pressure = test: hypotensive activity in anesthetized rats (minimal dose lowering diastolic blood pressure about 10 mm.); type: in vivo, Male Wistar strain rats; conditions: Rattus norvegicus; intravenous; dose producing a decrease of about 10 mm. in diastolic blood pressure
Description: This procedure is a modification of the technique described by Pike et al., Prostaglandins, Nobel Symposium 2, Stockholm, June, 1966; p. 165.
Male Wistar strain rats (Royal Hart Farms) averaging approximately 250 grams in weight were fastened to rat boards in a supine position by means of canvas vests and limb ties. The femoral area was infiltrated subcutaneously with lidocaine and the iliac artery and vein were exposed and cannulated. Arterial blood pressure (systolic/diastolic) was recorded using a Statham P23 Db pressure transducer-Offner dynograph system. To obtain a stable blood pressure, the animals were anesthetized before use with pentobarbital, 30 mg./kg. of body weight intravenously, and also were given hexamethonium bitartrate, 2 mg./kg., of body weight intravenously. The test compounds were prepared by ultrasonic dispersion in a saline-Tween 80 vehicle. A constant intravenous dose volume of 0.5 ml. was administered and test doses ranged from 0.1 to 10.0 mg./kg. of body weight. Increasing or decreasing doses were selected depending on the dose response obtained. In Table I below are set forth the minimal doses required to produce a decrease of about 10 mm. in diastolic blood pressure for typical compounds of the present invention.

[1] = test system: Microsporum canis ATCC 10214; test: agar-dilution streak-plate antifungal assay (1); type: cell-based; conditions: ATCC10214, read-out: Minimal inhibitory conc.
Description: (§1) The novel compounds of the present invention are also useful as antimicrobial agents. […] In this assay, the compounds to be tested are made up to contain 2.5 mg. of test compound per milliliter of solution. Observing sterile techniques, two-fold serial dilutions are made of each test solution. One milliliter of each of the original solutions and of each of the serial dilutions is then added to 9 ml. of warm sterile nutrient agar capable of supporting growth of the bacterial test cultures. A second set of agar dilutions is prepared identical to the first except that the nutrient agar is designed to support the growth of the fungal test cultures. […] The test bacteria and yeast-like fungi are prepared for use by growing in broth overnight. The spores of the filamentous fungi are harvested from mature agar slant cultures and are suspended in sterile physiological saline solution. A loopful of each of the resulting live suspensions is then, still employing sterile techniques, streaked upon the surfaces of each of the agar plates and the resulting streaked plates are then incubated. After an appropriate period of time, each of the streaks on each of the plates is inspected visually and the extent, if any, of bacterial or fungal growth is noted. The minimal inhibitory concentration (expressed in micrograms per milliliter) is defined as the concentration of test compound causing complete inhibition of growth of any particular organism. In a representative operation, and merely by way of illustration, the minimal inhibitory concentration of typical compounds of the present invention against a variety of test organisms as determined in the above-described assay are set forth in Tables II and III below: […]

[2] = test system: Microsporum gypseum ATCC 14683; test: agar-dilution streak-plate antifungal assay (2); type: cell-based; conditions: Nannizzia gypsea, ATCC14683, read-out: Minimal inhibitory conc.
Description: as §1

[3] = test system: Trichophyton tonsurans NIH 662; test: agar-dilution streak-plate antifungal assay (3); type: cell-based; conditions: NIH662, read-out: Minimal inhibitory conc.
Description: as §1

[4] = test system: Trichophyton mentagrophytes E 11?; test: agar-dilution streak-plate antifungal assay (4); type: cell-based; conditions: read-out: Minimal inhibitory conc.
Description: as §1

Trichophyton rubrum E 97 = test: agar-dilution streak-plate antifungal assay (5); type: cell-based; conditions: E97, read-out: Minimal inhibitory conc.
Description: as §1

[5] = test system: Mycobacterium smegmatis ATCC 606; test: agar-dilution streak-plate antibacterial assay (6); type: cell-based; conditions: Mycolicibacterium smegmatis, ATCC606, read-out: Minimal inhibitory conc.
Description: as §1

[6] = test system: Staphylococcus aureus Rose ATCC 14154; test: agar-dilution streak-plate antibacterial assay (7); type: cell-based; conditions: ATCC14154, read-out: Minimal inhibitory conc.
Description: as §1

[7] = test system: Streptococcus pyogenes C 203; test: agar-dilution streak-plate antibacterial assay (8); type: cell-based; conditions: C203, read-out: Minimal inhibitory conc.
Description: as §1

gastric acid secretion = test: inhibition of gastric acid secretion (pylorus-ligated rat, Shay rat); type: in vivo, rats (male, CFE strain); conditions: intraduodenal dose 100 mg./kg. body weight, 3 hours, 20% or more considered active
Description: The novel compounds of the present invention are also effective inhibitors of gastric acid secretion and of ulcer development in experimental animals, and thus are potentially valuable as agents for the control of gastric acid secretion and of gastric erosion and as anti-ulcer agents. Gastric acid secretion inhibitory action is usually measured by the "Shay rat" procedure ^(1,2) with some modifications as follows.
The rats (male, CFE strain) were starved for 48 hours (water was given ad libitum) to permit evacuation of stomach contents. On the morning of the experiment, under ether anesthesia, the abdominal region was shaved and a midline incision (1-11/2 inches) was made with a scalpel. With the help of a closed curved hemostat the duodenum was picked up. Upon getting the duodenum into view fingers were used to pull the stomach through the opening, the stomach was then gently manipulated with fingers to rid the stomach of air and residual matter which were pushed through the pylorus. Two 5-inch sutures were drawn under the pyloric-duodenal juncture. A ligature, at the juncture, was formed with one of the threads. The second ligature was also formed by not tightened.
The test compound or the vehicle, usually 1 ml./100 g. body weight, were injected into the duodenum as close as possible to the first ligature. After injection the second ligature was tightened below the injection site to minimize leakage. The stomach was placed back through the opening into the abdominal cavity, the area of incision was washed with saline and the incision was closed with autoclips. (Ocasionally, instead of an intraduodenal injection, animals were dosed by the oral or subcutaneous route. In the latter case, dosing was done thirty to sixty minutes before the operation).
The abdominal cavity was exposed by cutting with scissors and the esophagus close to the stomach was clamped off with a hemostat, the stomach was removed by cutting above the hemostat (the espohagus was cut) and between the two sutures. Extraneous tissue was removed, the stomach washed with saline and blotted on gauze. A slit was carefully made in the stomach which was held over a funnel and the contents were collected in a centrifuge tube. The stomach was further cut along the outside edge and turned inside out. Two ml. of water were used to wash the stomach contents into the respective centrifuge tube. The combined stomach contents and wash were then centrifuged out for 10 minutes in the International Size 2 Centrifuge (setting at 30). The supernatant was collected, volume measured and recorded, 2 drops of phenolphthalein indicator (1% in 95% ethanol) were added and the solution was titrated with 0.02N NaOH (or with 0.04N NaOH when large volumes of stomach contents were encountered) to pH 8.4 (because of usual coloring of the stomach contents, phenolphthalein was only used to permit visual indication that the end point was near) and the amount of acid present was calculated.
Compounds inducing inhibition of gastric acid secretion of 20% or more were considered active. In a representative operation, and merely by way of illustration, the results obtained with this assay with typical compounds of the present invention are given in Table IIIA.

[8] = test system: dl-PGE1-induced contraction of gerbil colon; test: inhibition of dl-PGE1-induced contraction of gerbil colon; conditions: approximate; for ID50 vs. 20 ng. of PGE1 /ml.: sub-maximal challenge, 20 ng./ml. dl-PGE1, 50% inhibition of maximum response; for ID50 vs. 200 ng. of PGE1 ml.: maximal challenge, 200 ng./ml. dl-PGE1

| SMILES | MIC [1] [µg/mL] | MIC [2] [µg/mL] | MIC [3] [µg/mL] | MIC [4] [µg/mL] | MIC (Trichophyton rubrum E 97) [µg/mL] | MIC [5] [µg/mL] | MIC [6] [µg/mL] | MIC [7] [µg/mL] | minimal effective dose (diastolic blood pressure) [mg/kg] | Percent Inhibition of gastric acid secretion (gastric acid secretion) [%] | ID50 vs. 20 ng. of PGE1 /ml. [8] [µg/mL] | ID50 vs. 200 ng. of PGE1 ml. [8] [µg/mL] |
| --- | --- | --- | --- | --- | --- | --- | --- | --- | --- | --- | --- | --- |
| CCCCCC/C=C/[C@H]1CCC(O)[C@@H]1CCCCCCC(=O)NCCCN(C)C (stereo partly drawn) [N-(3-dimethylaminopropyl)-9-(α- and β-)-hydroxy-13-trans-prostenamide] | 250 (≈ 612 µM) | 125 (≈ 306 µM) | 125 (≈ 306 µM) | 125 (≈ 306 µM) | 250 (≈ 612 µM) | 6 (≈ 14.7 µM) | 62 (≈ 152 µM) | 6 (≈ 14.7 µM) | 0.2 | 85 |  |  |
| CCCCCC/C=C/[C@H]1CCC(=O)[C@@H]1CCCCCCC(=O)N1CC2CCC(CC2)C1 (relative stereo) |  |  |  |  |  |  |  |  |  |  | 4 |  |
| CCC/C=C/[C@H]1CCC(=O)[C@@H]1CCCCCCC(=O)NCCCN(C)C (relative stereo) [N-(3-dimethylaminopropyl) 9-oxo-18,19,20-trinor-13-trans-prostenamide] |  |  |  |  |  |  |  |  |  | 87 |  |  |
| CCCCCC/C=C/[C@H]1CCC(=O)[C@@H]1CCCCCCC(=O)NN(C)C (relative stereo) [N-(dimethylamino)-9-oxo-13-trans-prostenamide] | 25 (≈ 68.6 µM) | 25 (≈ 68.6 µM) | 25 (≈ 68.6 µM) | 25 (≈ 68.6 µM) | 25 (≈ 68.6 µM) | 10 (≈ 27.4 µM) | 25 (≈ 68.6 µM) | 10 (≈ 27.4 µM) | 2 | 58 | 0.5 |  |
| CCCCCC/C=C/[C@H]1CCC(=O)[C@@H]1CCCCCCC(=O)NCCO (relative stereo) [N-(2-hydroxyethyl)-9-oxo-13-trans-prostenamide] | 25 (≈ 68.4 µM) | 25 (≈ 68.4 µM) | 25 (≈ 68.4 µM) | 10 (≈ 27.4 µM) | 25 (≈ 68.4 µM) | 25 (≈ 68.4 µM) | 25 (≈ 68.4 µM) | 10 (≈ 27.4 µM) | 0.4 |  | 1 |  |
| CCCCCC/C=C/[C@H]1CCC(=O)[C@@H]1CCCCCCC(=O)N1CCN(c2ccccc2)CC1 (relative stereo) |  |  |  |  |  |  |  |  | 8 |  |  |  |
| CCCCCC/C=C/[C@H]1CCC(=O)[C@@H]1CCCCCCC(=O)NCCCN(C)C (relative stereo) | 100 (≈ 246 µM) | 100 (≈ 246 µM) | 100 (≈ 246 µM) | 25 (≈ 61.5 µM) | 100 (≈ 246 µM) | 10 (≈ 24.6 µM) | 50 (≈ 123 µM) | 10 (≈ 24.6 µM) | 0.4 | 76 | 0.5 |  |
| CCCCCC/C=C/[C@H]1CCC(=O)[C@@H]1CCCCCCC(=O)N1CCN(C)CC1 (relative stereo) [listing 2 of 2 here] |  |  |  |  |  |  |  |  |  |  | 0.5 | 3 |

Second part, led by results:

| MIC [1] [µg/mL] | MIC [2] [µg/mL] | MIC [3] [µg/mL] | MIC [4] [µg/mL] | MIC (Trichophyton rubrum E 97) [µg/mL] | MIC [5] [µg/mL] | MIC [6] [µg/mL] | MIC [7] [µg/mL] | SMILES | minimal effective dose (diastolic blood pressure) [mg/kg] | Percent Inhibition of gastric acid secretion (gastric acid secretion) [%] | ID50 vs. 20 ng. of PGE1 /ml. [8] [µg/mL] | ID50 vs. 200 ng. of PGE1 ml. [8] [µg/mL] |
| --- | --- | --- | --- | --- | --- | --- | --- | --- | --- | --- | --- | --- |
| 250 (≈ 741 µM) | 250 (≈ 741 µM) | 250 (≈ 741 µM) | 250 (≈ 741 µM) | 250 (≈ 741 µM) | 250 (≈ 741 µM) | 250 (≈ 741 µM) | 250 (≈ 741 µM) | CCCCCC/C=C/[C@H]1CCC(=O)[C@@H]1CCCCCCC(=O)NO (relative stereo) | 2 | 38 |  | 12 |
| 250 (≈ 638 µM) |  | 250 (≈ 638 µM) | 250 (≈ 638 µM) |  | 25 (≈ 63.8 µM) |  | 25 (≈ 63.8 µM) | CCCCCC/C=C/[C@H]1CCC(=O)[C@@H]1CCCCCCC(=O)N1CCOCC1 (relative stereo) | 1 |  |  |  |
| 100 (≈ 298 µM) | 50 (≈ 149 µM) | 25 (≈ 74.5 µM) | 25 (≈ 74.5 µM) | 100 (≈ 298 µM) |  | 5 (≈ 14.9 µM) |  | CCCCCC/C=C/[C@H]1CCC(=O)[C@@H]1CCCCCCC(=O)NC (relative stereo) [N-methyl-9-oxo-13-trans-prostenamide] | 4 to 8 |  |  |  |
| 100 (≈ 266 µM) | 10 (≈ 26.6 µM) | 50 (≈ 133 µM) | 50 (≈ 133 µM) | 25 (≈ 66.6 µM) | 5 (≈ 13.3 µM) | 50 (≈ 133 µM) | 5 (≈ 13.3 µM) | CCCCCC/C=C/[C@H]1CCC(=O)[C@@H]1CCCCCCC(=O)N1CCCC1 (relative stereo) | 8 |  | 1 |  |
| 25 (≈ 71.5 µM) | 25 (≈ 71.5 µM) | 25 (≈ 71.5 µM) | 25 (≈ 71.5 µM) | 25 (≈ 71.5 µM) | 10 (≈ 28.6 µM) | 25 (≈ 71.5 µM) | 10 (≈ 28.6 µM) | CCCCCC/C=C/[C@H]1CCC(=O)[C@@H]1CCCCCCC(=O)N(C)C (relative stereo) [N,N-dimethyl-9-oxo-13-trans-prostenamide] | 2 |  | 2 |  |
| 25 (≈ 61.8 µM) | 25 (≈ 61.8 µM) | 25 (≈ 61.8 µM) | 10 (≈ 24.7 µM) | 25 (≈ 61.8 µM) | 10 (≈ 24.7 µM) | 25 (≈ 61.8 µM) | 10 (≈ 24.7 µM) | CCCCCC/C=C/[C@H]1CCC(=O)[C@@H]1CCCCCCC(=O)N1CCN(C)CC1 (relative stereo) [listing 1 of 2 here] | 4 | 36 |  |  |
| 50 (≈ 156 µM) | 50 (≈ 156 µM) | 50 (≈ 156 µM) | 25 (≈ 77.8 µM) | 50 (≈ 156 µM) | 25 (≈ 77.8 µM) | 50 (≈ 156 µM) | 10 (≈ 31.1 µM) | CCCCCC/C=C/[C@H]1CCC(=O)[C@@H]1CCCCCCC(N)=O (relative stereo) [9-oxo-13-trans-prostenamide] | 2 |  | 5 |  |
